In US20260274856A1, “COVALENT CEREBLON LIGANDS” (C4 THERAPEUTICS, INC., priority 2023, published 2026):

Tested on: A375—NRASQ^61K cells (cell line A375.11)
Test: CTGlo (CellTiter-Glo 2.0) Cell Viability Assay
Assay type: cell-based
Details: 96 h; IP; read-out: CTGlo A375.11 96 hours IP
Description: Compounds of the present invention were tested for their effect on the viability of A375—NRASQ^61K cells by quantification of ATP using the CellTiter-Glo® 2.0 Cell Viability Assay (Catalog No. G9243, Promega, Madison, WI, USA). This assay produces a luminescent signal in the presence of ATP, which is indicative of metabolically active cells, making the luminescence readout proportional to the number of viable cells. A375—NRASQ^61K cells, also referred to here as cell line A375.11, (harboring BRAF homozygous V600E mutation and NRAS homozygous Q61K mutation) were purchased from ATCC (Catalog No. CRL-1619IG-2, Manassas, VA, USA).
Cells were also plated to a 384-well plate with no compound treatment, to which CellTiter-Glo® reagent was added and luminescence was read right after plating to act as a baseline signal at time of plating (To).
DMSO treated cells with no CellTiter-Glo® reagent added were used as the background or positive control (P). Viability was determined by subtracting out the average background signal (P) and normalized to the average untreated signal (N) set at 100%.

Structure (SMILES) | GI50
CCN(C)S(=O)(=O)Nc1ccc(F)c(Oc2ccc3ncn([C@@H]4COC5(CCN(C(=O)CN6CCC(c7ccc(C8CCC(=O)NC8=O)cc7OS(=O)(=O)F)CC6)CC5)C4)c(=O)c3c2)c1C#N (stereo partly drawn) [drawing 1168] | 1 to 10 µM
CCN(C)S(=O)(=O)Nc1ccc(F)c(Oc2ccc3ncn([C@H]4COC5(CCN(C(=O)CN6CCC(c7ccc(C8CCC(=O)NC8=O)cc7OS(=O)(=O)F)CC6)CC5)C4)c(=O)c3c2)c1C#N (stereo partly drawn) [drawing 1169] | 1 to 10 µM
CCN(C)S(=O)(=O)Nc1ccc(F)c(Oc2ccc3ncn([C@H]4COC5(CCN(C(=O)CN6CCN(c7ccc(C8CCC(=O)NC8=O)cc7OS(=O)(=O)F)CC6)CC5)C4)c(=O)c3c2)c1C#N (stereo partly drawn) [drawing 1170] | < 1 µM
CCN(C)S(=O)(=O)Nc1ccc(F)c(Oc2ccc3ncn([C@@H]4COC5(CCN(C(=O)CN6CCC(c7ccc(N8CCC(=O)NC8=O)cc7OS(=O)(=O)F)CC6)CC5)C4)c(=O)c3c2)c1C#N [drawing 1171] | > 10 µM
CCN(C)S(=O)(=O)Nc1ccc(F)c(Oc2ccc3ncn([C@H]4COC5(CCN(C(=O)CN6CCN(c7ccc(N8CCC(=O)NC8=O)cc7OS(=O)(=O)F)CC6)CC5)C4)c(=O)c3c2)c1C#N [drawing 1172] | > 10 µM
CCN(C)S(=O)(=O)Nc1ccc(F)c(Oc2ccc3ncn([C@@H]4COC5(CCN(C(=O)CN6CCC(c7ccc(OC8CCC(=O)NC8=O)cc7S(=O)(=O)F)CC6)CC5)C4)c(=O)c3c2)c1C#N (stereo partly drawn) [drawing 1175] | > 10 µM
CCN(C)S(=O)(=O)Nc1ccc(F)c(Oc2ccc3ncn([C@@H]4COC5(CCN(C(=O)CN6CCC(c7ccc(NC8CCC(=O)NC8=O)cc7S(=O)(=O)F)CC6)CC5)C4)c(=O)c3c2)c1C#N (stereo partly drawn) [drawing 1177] | > 10 µM

Same assay, conditions: 96 hours; IP; read-out: CTGlo A375.11 96 hours IP

Structure (SMILES) | GI50
CCN(C)S(=O)(=O)Nc1ccc(F)c(Oc2ccc3ncn([C@@H]4COC5(CCN(C(=O)CN6CCC(c7ccc(N8CCC(=O)NC8=O)cc7OS(C)(=O)=O)CC6)CC5)C4)c(=O)c3c2)c1C#N [drawing 1173] | 1 to 10 µM
CCN(C)S(=O)(=O)Nc1ccc(F)c(Oc2ccc3ncn([C@H]4COC5(CCN(C(=O)CN6CCC(c7ccc(N8CCC(=O)NC8=O)cc7OS(C)(=O)=O)CC6)CC5)C4)c(=O)c3c2)c1C#N [drawing 1174] | 1 to 10 µM
CCN(C)S(=O)(=O)Nc1ccc(F)c(Oc2ccc3ncn([C@H]4COC5(CCN(C(=O)CN6CCC(c7ccc(NC8CCC(=O)NC8=O)cc7OS(C)(=O)=O)CC6)CC5)C4)c(=O)c3c2)c1C#N (stereo partly drawn) [drawing 1176] | 1 to 10 µM

Same assay, conditions: 96 hours; lowest % viability achieved

Structure (SMILES) | Emax
CCN(C)S(=O)(=O)Nc1ccc(F)c(Oc2ccc3ncn([C@@H]4COC5(CCN(C(=O)CN6CCC(c7ccc(C8CCC(=O)NC8=O)cc7OS(=O)(=O)F)CC6)CC5)C4)c(=O)c3c2)c1C#N (stereo partly drawn) [drawing 1168] | 60 to 95%
CCN(C)S(=O)(=O)Nc1ccc(F)c(Oc2ccc3ncn([C@H]4COC5(CCN(C(=O)CN6CCC(c7ccc(C8CCC(=O)NC8=O)cc7OS(=O)(=O)F)CC6)CC5)C4)c(=O)c3c2)c1C#N (stereo partly drawn) [drawing 1169] | < 60%
CCN(C)S(=O)(=O)Nc1ccc(F)c(Oc2ccc3ncn([C@H]4COC5(CCN(C(=O)CN6CCN(c7ccc(C8CCC(=O)NC8=O)cc7OS(=O)(=O)F)CC6)CC5)C4)c(=O)c3c2)c1C#N (stereo partly drawn) [drawing 1170] | 60 to 95%
CCN(C)S(=O)(=O)Nc1ccc(F)c(Oc2ccc3ncn([C@@H]4COC5(CCN(C(=O)CN6CCC(c7ccc(N8CCC(=O)NC8=O)cc7OS(=O)(=O)F)CC6)CC5)C4)c(=O)c3c2)c1C#N [drawing 1171] | 60 to 95%
CCN(C)S(=O)(=O)Nc1ccc(F)c(Oc2ccc3ncn([C@H]4COC5(CCN(C(=O)CN6CCN(c7ccc(N8CCC(=O)NC8=O)cc7OS(=O)(=O)F)CC6)CC5)C4)c(=O)c3c2)c1C#N [drawing 1172] | 60 to 95%
CCN(C)S(=O)(=O)Nc1ccc(F)c(Oc2ccc3ncn([C@@H]4COC5(CCN(C(=O)CN6CCC(c7ccc(N8CCC(=O)NC8=O)cc7OS(C)(=O)=O)CC6)CC5)C4)c(=O)c3c2)c1C#N [drawing 1173] | 60 to 95%
CCN(C)S(=O)(=O)Nc1ccc(F)c(Oc2ccc3ncn([C@H]4COC5(CCN(C(=O)CN6CCC(c7ccc(N8CCC(=O)NC8=O)cc7OS(C)(=O)=O)CC6)CC5)C4)c(=O)c3c2)c1C#N [drawing 1174] | < 60%
CCN(C)S(=O)(=O)Nc1ccc(F)c(Oc2ccc3ncn([C@@H]4COC5(CCN(C(=O)CN6CCC(c7ccc(OC8CCC(=O)NC8=O)cc7S(=O)(=O)F)CC6)CC5)C4)c(=O)c3c2)c1C#N (stereo partly drawn) [drawing 1175] | < 60%
CCN(C)S(=O)(=O)Nc1ccc(F)c(Oc2ccc3ncn([C@H]4COC5(CCN(C(=O)CN6CCC(c7ccc(NC8CCC(=O)NC8=O)cc7OS(C)(=O)=O)CC6)CC5)C4)c(=O)c3c2)c1C#N (stereo partly drawn) [drawing 1176] | < 60%
CCN(C)S(=O)(=O)Nc1ccc(F)c(Oc2ccc3ncn([C@@H]4COC5(CCN(C(=O)CN6CCC(c7ccc(NC8CCC(=O)NC8=O)cc7S(=O)(=O)F)CC6)CC5)C4)c(=O)c3c2)c1C#N (stereo partly drawn) [drawing 1177] | 60 to 95%

Same assay, conditions: half-maximal inhibition of cell growth; table title: A375.11 96 hours; read-out: CTGlo A375.11 96 hours GI50

Structure (SMILES) | GI50
CCN(C)S(=O)(=O)Nc1ccc(F)c(Oc2ccc3ncn([C@@H]4COC5(CCN(C(=O)CN6CCC(c7ccc(C8CCC(=O)NC8=O)cc7OS(=O)(=O)F)CC6)CC5)C4)c(=O)c3c2)c1C#N (stereo partly drawn) [drawing 1168] | > 10 µM
CCN(C)S(=O)(=O)Nc1ccc(F)c(Oc2ccc3ncn([C@H]4COC5(CCN(C(=O)CN6CCC(c7ccc(C8CCC(=O)NC8=O)cc7OS(=O)(=O)F)CC6)CC5)C4)c(=O)c3c2)c1C#N (stereo partly drawn) [drawing 1169] | > 10 µM
CCN(C)S(=O)(=O)Nc1ccc(F)c(Oc2ccc3ncn([C@H]4COC5(CCN(C(=O)CN6CCN(c7ccc(C8CCC(=O)NC8=O)cc7OS(=O)(=O)F)CC6)CC5)C4)c(=O)c3c2)c1C#N (stereo partly drawn) [drawing 1170] | > 10 µM
CCN(C)S(=O)(=O)Nc1ccc(F)c(Oc2ccc3ncn([C@@H]4COC5(CCN(C(=O)CN6CCC(c7ccc(N8CCC(=O)NC8=O)cc7OS(=O)(=O)F)CC6)CC5)C4)c(=O)c3c2)c1C#N [drawing 1171] | > 10 µM
CCN(C)S(=O)(=O)Nc1ccc(F)c(Oc2ccc3ncn([C@H]4COC5(CCN(C(=O)CN6CCN(c7ccc(N8CCC(=O)NC8=O)cc7OS(=O)(=O)F)CC6)CC5)C4)c(=O)c3c2)c1C#N [drawing 1172] | > 10 µM
CCN(C)S(=O)(=O)Nc1ccc(F)c(Oc2ccc3ncn([C@@H]4COC5(CCN(C(=O)CN6CCC(c7ccc(N8CCC(=O)NC8=O)cc7OS(C)(=O)=O)CC6)CC5)C4)c(=O)c3c2)c1C#N [drawing 1173] | > 10 µM
CCN(C)S(=O)(=O)Nc1ccc(F)c(Oc2ccc3ncn([C@H]4COC5(CCN(C(=O)CN6CCC(c7ccc(N8CCC(=O)NC8=O)cc7OS(C)(=O)=O)CC6)CC5)C4)c(=O)c3c2)c1C#N [drawing 1174] | 1 to 10 µM
CCN(C)S(=O)(=O)Nc1ccc(F)c(Oc2ccc3ncn([C@@H]4COC5(CCN(C(=O)CN6CCC(c7ccc(OC8CCC(=O)NC8=O)cc7S(=O)(=O)F)CC6)CC5)C4)c(=O)c3c2)c1C#N (stereo partly drawn) [drawing 1175] | > 10 µM
CCN(C)S(=O)(=O)Nc1ccc(F)c(Oc2ccc3ncn([C@H]4COC5(CCN(C(=O)CN6CCC(c7ccc(NC8CCC(=O)NC8=O)cc7OS(C)(=O)=O)CC6)CC5)C4)c(=O)c3c2)c1C#N (stereo partly drawn) [drawing 1176] | > 10 µM
CCN(C)S(=O)(=O)Nc1ccc(F)c(Oc2ccc3ncn([C@@H]4COC5(CCN(C(=O)CN6CCC(c7ccc(NC8CCC(=O)NC8=O)cc7S(=O)(=O)F)CC6)CC5)C4)c(=O)c3c2)c1C#N (stereo partly drawn) [drawing 1177] | > 10 µM

Molecular target: mutant BRAF V600E (Homo sapiens, UniProt P15056, V600E)
Test: BRAF V600E HiBiT Degradation Assay in A375.10 cells
Details: 24 hours, A375.10 cells; inflection point of the dose-response curve
Description: Compounds of this invention were tested for degradation of mutant BRAF V600E using the HiBiT assay, a luminescence-based assay for quantification of cellular protein levels using the Nano-Glo@HiBiT Lytic Detection System (Catalog No. N3050, Promega, Madison, WI USA). This assay utilizes the HiBiT tag on a protein of interest, which creates a luminescent signal in the presence of a complementing peptide and its substrate, the quantification of which 10 is proportional to the amount of HiBiT-tagged protein in the cell.
A375 cells were engineered to express HiBiT tagged BRAF V600E by CRISPR knock-in of the HiBiT tag to the endogenous BRAF V600E locus, followed by selection of a clonal population containing 15 the appropriate knock-in (referred to here as cell line A375.10). […] Cell culture flasks and 384-well microplates 20 were acquired from VWR (Radnor, PA, USA).
Plates were then spun briefly, and cells were incubated with compound at 37° C. for 2 hoursor 24 hours.
Following the appropriate treatment time, Nano-Glo® HiBiT Lytic Assay reagents were added to the cells per the manufacturer's instructions by adding 30ul of reagent per well, and 10 the luminescence signal was acquired by plate reader. Cells treated with DMSO only (no test compound treatment) were used as the negative control (N). Media only (no cells added) with Nano-Glo reagent addition was used as the background or positive control (P). The percent response of compound treated samples were calculated by subtracting out the background signal (P) and normalizing to the DMSO control (N) as follows. % Response=100 x (Treated Signal - Average (P))/(Average (N) - Average (P)).
Data were analyzed with a 4-parameter logistic fit to generate sigmoidal dose-response curves. […] The Emax, or maximum effect of each compound, represents the amount of residual protein remaining in the cell following compound treatment.
The experiment was conducted at least once for each compound. If the experiment was conducted multiple times, the data shown in the table is the average of the two or more experiments.

mutant BRAF V600E, sequence (P15056 whole entry V600E): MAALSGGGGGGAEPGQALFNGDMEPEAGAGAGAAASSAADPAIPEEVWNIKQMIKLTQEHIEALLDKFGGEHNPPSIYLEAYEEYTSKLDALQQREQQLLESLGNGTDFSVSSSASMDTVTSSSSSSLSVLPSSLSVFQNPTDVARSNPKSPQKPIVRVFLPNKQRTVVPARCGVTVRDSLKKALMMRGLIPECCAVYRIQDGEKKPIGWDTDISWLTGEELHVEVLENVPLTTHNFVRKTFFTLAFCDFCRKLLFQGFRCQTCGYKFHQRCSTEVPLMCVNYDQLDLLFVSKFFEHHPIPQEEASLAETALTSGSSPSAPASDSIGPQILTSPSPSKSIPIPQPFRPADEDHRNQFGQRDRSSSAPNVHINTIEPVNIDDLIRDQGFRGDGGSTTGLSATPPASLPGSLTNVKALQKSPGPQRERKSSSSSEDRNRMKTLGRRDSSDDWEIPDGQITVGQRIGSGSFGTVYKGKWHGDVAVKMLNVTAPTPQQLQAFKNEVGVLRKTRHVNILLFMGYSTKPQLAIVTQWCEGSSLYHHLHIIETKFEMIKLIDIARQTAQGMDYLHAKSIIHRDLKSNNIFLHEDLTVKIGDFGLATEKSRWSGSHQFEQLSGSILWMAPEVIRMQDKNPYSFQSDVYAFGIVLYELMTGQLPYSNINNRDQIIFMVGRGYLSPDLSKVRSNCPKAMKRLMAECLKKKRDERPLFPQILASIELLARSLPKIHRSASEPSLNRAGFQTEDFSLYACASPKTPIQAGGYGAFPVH

Structure (SMILES) | HiBIT-Degradation A375.10 BRAF 24 hours IP nM
CCN(C)S(=O)(=O)Nc1ccc(F)c(Oc2ccc3ncn([C@H]4COC5(CCN(C(=O)CN6CCN(c7ccc(C8CCC(=O)NC8=O)cc7OS(=O)(=O)F)CC6)CC5)C4)c(=O)c3c2)c1C#N (stereo partly drawn) [drawing 1212] | *** (<= 1 μM is ***)
CCN(C)S(=O)(=O)Nc1ccc(F)c(Oc2ccc3ncn([C@H]4COC5(CCN(C(=O)CN6CCN(c7ccc(N8CCC(=O)NC8=O)cc7OS(=O)(=O)F)CC6)CC5)C4)c(=O)c3c2)c1C#N [drawing 1213] | *** (<= 1 μM is ***)
CCN(C)S(=O)(=O)Nc1ccc(F)c(Oc2ccc3ncn([C@H]4COC5(CCN(C(=O)CN6CCC(c7ccc(OC8CCC(=O)NC8=O)cc7OS(=O)(=O)F)CC6)CC5)C4)c(=O)c3c2)c1C#N (stereo partly drawn) [drawing 1214] | *** (<= 1 μM is ***)
CCN(C)S(=O)(=O)Nc1ccc(F)c(Oc2ccc3ncn([C@H]4COC5(CCN(C(=O)CN6CCC(c7ccc(NC8CCC(=O)NC8=O)cc7S(=O)(=O)F)CC6)CC5)C4)c(=O)c3c2)c1C#N (stereo partly drawn) [drawing 1215] | *** (<= 1 μM is ***)

Same assay, conditions: read-out: HiBIT-Degradation A375.10 BRAF 24 hours DC50 nM; 24 hours, A375.10 cells

Structure (SMILES) | DC50
CCN(C)S(=O)(=O)Nc1ccc(F)c(Oc2ccc3ncn([C@H]4COC5(CCN(C(=O)CN6CCN(c7ccc(C8CCC(=O)NC8=O)cc7OS(=O)(=O)F)CC6)CC5)C4)c(=O)c3c2)c1C#N (stereo partly drawn) [drawing 1212] | < 1000 nM
CCN(C)S(=O)(=O)Nc1ccc(F)c(Oc2ccc3ncn([C@H]4COC5(CCN(C(=O)CN6CCN(c7ccc(N8CCC(=O)NC8=O)cc7OS(=O)(=O)F)CC6)CC5)C4)c(=O)c3c2)c1C#N [drawing 1213] | 1000 to 10000 nM
CCN(C)S(=O)(=O)Nc1ccc(F)c(Oc2ccc3ncn([C@H]4COC5(CCN(C(=O)CN6CCC(c7ccc(OC8CCC(=O)NC8=O)cc7OS(=O)(=O)F)CC6)CC5)C4)c(=O)c3c2)c1C#N (stereo partly drawn) [drawing 1214] | < 1000 nM
CCN(C)S(=O)(=O)Nc1ccc(F)c(Oc2ccc3ncn([C@H]4COC5(CCN(C(=O)CN6CCC(c7ccc(NC8CCC(=O)NC8=O)cc7S(=O)(=O)F)CC6)CC5)C4)c(=O)c3c2)c1C#N (stereo partly drawn) [drawing 1215] | < 1000 nM

Same assay, conditions: read-out: HiBIT-Degradation A375.10 BRAF 24 hours Emax

Structure (SMILES) | Emax
CCN(C)S(=O)(=O)Nc1ccc(F)c(Oc2ccc3ncn([C@H]4COC5(CCN(C(=O)CN6CCN(c7ccc(C8CCC(=O)NC8=O)cc7OS(=O)(=O)F)CC6)CC5)C4)c(=O)c3c2)c1C#N (stereo partly drawn) [drawing 1212] | < 60%
CCN(C)S(=O)(=O)Nc1ccc(F)c(Oc2ccc3ncn([C@H]4COC5(CCN(C(=O)CN6CCN(c7ccc(N8CCC(=O)NC8=O)cc7OS(=O)(=O)F)CC6)CC5)C4)c(=O)c3c2)c1C#N [drawing 1213] | < 60%
CCN(C)S(=O)(=O)Nc1ccc(F)c(Oc2ccc3ncn([C@H]4COC5(CCN(C(=O)CN6CCC(c7ccc(OC8CCC(=O)NC8=O)cc7OS(=O)(=O)F)CC6)CC5)C4)c(=O)c3c2)c1C#N (stereo partly drawn) [drawing 1214] | < 60%
CCN(C)S(=O)(=O)Nc1ccc(F)c(Oc2ccc3ncn([C@H]4COC5(CCN(C(=O)CN6CCC(c7ccc(NC8CCC(=O)NC8=O)cc7S(=O)(=O)F)CC6)CC5)C4)c(=O)c3c2)c1C#N (stereo partly drawn) [drawing 1215] | < 60%
